Assay results from US7465576B2, “Method for treating periodontal disease with a bacteriocidal disinfectant” (priority 2004, dated 2008).
“And” between values parts separate entries of the source, which are not always exact repeats. Equal values may be shown once. Read-outs that look alike come from different tables or passages of the source.

Experiments:
[1] = tested on: putrefying bacteria in tofu (soybean curd); assay: Viable cell numbers in prepared food after spraying (Test Example 3); type: cell-based
Text: (§1) With regards to the putrefaction process of prepared food, we investigated whether or not the present bactericidal disinfectant could stop the progress of putrefaction when sprayed of food, and the degree of that bactericidal effect. Normally disinfectants are not applied to prepared food, but very often scraps of food become lodged in a periodontal pocket, providing a nutritional source for bacteria, and since the present bactericidal disinfectant is composed of compounds which are recognized as food additives, it is important to assess these effects. Just-prepared cooked rice, tofu (soybean curd), spinach with sesame dressing, and fried meat and vegetables were each crushed, homogenized, and left at 28° C. for use as the samples. After samples had been left for 5 hours, part of each was taken and used to measure bacterial viable cell number, while the respective disinfectants were sprayed uniformly on the remaining samples. Viable cell numbers were measured 1, 2 and 24 hours after spraying. Water alone was sprayed as a control. After samples had been left for 24 hours part of each was taken for measuring viable cell number, and the respective disinfectants were sprayed uniformly on the remaining samples. As when the samples were left for 5 hours, viable cell numbers were measured 1 hour, 2 hours and 24 hours after spraying. Water alone was sprayed as a control. Viable cell numbers were measured by the poured plate method using 5 g of each sample diluted by ordinary methods.
(§2) The degree of putrefaction of course differs depending on the preparation method, ingredients and environment, but in the case of the cooked rice in this experiment, the viable cell number immediately after preparation was […] cells/g of sample, rising to 1×10^3 cells/g of sample after 5 hours, 5×10^5 cells/g of sample after 24 hours and 7×10^6 cells/g of sample after 48 hours. In the case of the tofu (soybean curd), the initial viable cell number was 2×10^4 cells/g of sample, rising to 8×10^5 cells/g of sample after 5 hours, 9×10^7 cells/g of sample after 24 hours, and 1×10^9 cells/g of sample after 48 hours, with considerable putrefaction. In the case of the spinach with sesame dressing, the viable cell number was 2×10^3 cells/g of sample immediately after preparation, rising to 5×10^4 cells/g of sample after 5 hours, 3×10^7 cells/g of sample after 24 hours and 2×10^8 cells/g of sample after 48 hours. In the case of the fried meat and vegetables, it was […] cells/g of sample immediately after preparation, rising to 2×10^3 cells/g of sample after 5 hours and 2×10^8 cells/g of sample after 24 hours, at which point there was a slight smell of putrefaction, while after 48 hours putrefaction has progressed still further and the viable cell number had risen to 3×10^9 cells/g of sample.

[2] = tested on: putrefying bacteria in cooked rice; assay: as above; type: cell-based
Text: as §1, §2

[3] = tested on: putrefying bacteria in fried meat and vegetables; assay: as above; type: cell-based
Text: as §1, §2

[4] = tested on: putrefying bacteria in spinach with sesame dressing; assay: as above; type: cell-based
Text: as §1, §2

[5] = tested on: thumbnails of volunteers; assay: Elongation of thumbnails (Test Example 7); type: in vivo, human; details: for Elongation of nails: Left (treated) thumbnail
Text: As a general rule the bacterial disinfectants were applied immediately after hand washing. Nail growth and shape are closely tied to individual physical condition, and are a benchmark of health.

[6] = tested on: spores of sporulating bacteria; type: cell-based
[7] = tested on: plaque adhering to supragingival calculus; assay: Viable cell numbers in plaque soaked in disinfectant (Test Example 4); type: cell-based; details: 60 minutes of immersion
[8] = tested on: MRSA or E. coli O-157; type: cell-based; details: organic substance exceeding 50 ppm
[9] = tested on: acid-fast bacteria; type: cell-based
[10] = tested on: Red worms
Protocol: Red worms with a mean length of 40 mm were prepared in groups of 10, the annuli of the red worms were severed with a cutter, and ordinary concentrations of the various bactericidal disinfectants contained in absorbent cotton were applied to the severed ends twice a day, morning and night. Application to the ends was continued even after the severed ends healed, and recovery and growth were observed. Water was applied as a control.

[11] = tested on: putrefying bacteria in prepared food; assay: Viable cell numbers in prepared food after spraying (Test Example 3), summary; type: cell-based
Text: With regards to the putrefaction process of prepared food, we investigated whether or not the present bactericidal disinfectant could stop the progress of putrefaction when sprayed of food, and the degree of that bactericidal effect. Normally disinfectants are not applied to prepared food, but very often scraps of food become lodged in a periodontal pocket, providing a nutritional source for bacteria, and since the present bactericidal disinfectant is composed of compounds which are recognized as food additives, it is important to assess these effects. Just-prepared cooked rice, tofu (soybean curd), spinach with sesame dressing, and fried meat and vegetables were each crushed, homogenized, and left at 28° C. for use as the samples. […] Water alone was sprayed as a control. […] Water alone was sprayed as a control. […] Consequently, although complete eradication was not achieved, it can be said that bactericide was largely achieved. That is, there is the ability to halt development of putrefying bacteria in food and a bactericidal effect.

[12] = tested on: plaque adhering to subgingival calculus; assay: Viable cell numbers in plaque soaked in disinfectant (Test Example 4); type: cell-based; details: 60 minutes of immersion
[13] = tested on: detached skin wounds of mice; assay: Recovery from skin damage (Test Example 5); type: in vivo; details: applied to wound twice a day
[14] = sprayed after 5 hours, 24 hrs after spraying
[15] = sprayed after 5 hours, just after spraying
[16] = sprayed after 24 hours, 1 hr after spraying
[17] = sprayed after 24 hours, 2 hrs after spraying
[18] = sprayed after 24 hours, 24 hrs after spraying
[19] = sprayed after 24 hours, just after spraying
[20] = 5 days after severing, 20 mm when severed
[21] = sprayed after 5 hours, 1 hr after spraying
[22] = sprayed after 5 hours, 2 hrs after spraying

## N=C(NCCCCCCNC(=N)NC(=N)Nc1ccc(Cl)cc1)NC(=N)Nc1ccc(Cl)cc1 [Hibitane]
[1]; [14]
  viable cell number: 2 × 10^2 cells/g of sample
[1]; [15]
  viable cell number: 8 × 10^2 cells/g of sample
[1]; [16]
  viable cell number: 5 × 10^2 cells/g of sample
[1]; [17]
  viable cell number: 2 × 10^2 cells/g of sample
[1]; [18]
  viable cell number: 3 × 10^3 cells/g of sample
[1]; [19]
  viable cell number: 5 × 10^4 cells/g of sample
[2]; [15]
  viable cell number: 1 × 10^2 cells/g of sample
[2]; [16]
  viable cell number: 7 × 10^2 cells/g of sample
[2]; [17]
  viable cell number: 5 × 10^2 cells/g of sample
[2]; [18]
  viable cell number: 4 × 10^3 cells/g of sample
[2]; [19]
  viable cell number: 1 × 10^4 cells/g of sample
[3]; [14]
  viable cell number: 5 × 10^3 cells/g of sample
[3]; [15]
  viable cell number: 2 × 10^2 cells/g of sample
[3]; [16]
  viable cell number: 5 × 10^2 cells/g of sample
[3]; [17]
  viable cell number: 2 × 10^2 cells/g of sample
[3]; [18]
  viable cell number: 5 × 10^4 cells/g of sample
[3]; [19]
  viable cell number: 7 × 10^4 cells/g of sample
[4]; [14]
  viable cell number: 6 × 10^2 cells/g of sample
[4]; [15]
  viable cell number: 2 × 10^2 cells/g of sample
[4]; [16]
  viable cell number: 2 × 10^2 cells/g of sample
[4]; [17]
  viable cell number: 1 × 10^2 cells/g of sample
[4]; [18]
  viable cell number: 8 × 10^3 cells/g of sample
[4]; [19]
  viable cell number: 3 × 10^4 cells/g of sample
[5]; 10 days
  Elongation of nails: 0.8 mm
[5]; 20 days
  Elongation of nails: 1.7 mm
[5]; 30 days
  Elongation of nails: 2.5 mm
[5]; 40 days
  Elongation of nails: 3.3 mm
[5]; 50 days
  Elongation of nails: 4.2 mm
[5]; 60 days
  Elongation of nails: 5.0 mm
[6]
  effect against spores: ineffective
[7]
  survival of bacteria living inside plaque: half survived
[8]
  bactericidal effect in presence of organic substance: the bacteria did not die after 1 minute of contact
[9]
  effect against acid-fast bacteria: ineffective
[10]; [20]
  length of severed red worms: 21 mm
[10]; 10 days after severing
  length of severed red worms: 22 mm
[10]; 15 days after severing
  length of severed red worms: 23 mm
[10]; in vivo
  Deaths: 10
[11]
  bactericidal effect on putrefying bacteria in food: no bactericidal effect in the real sense
[12]
  survival of bacteria in plaque: continued to survive
[13]
  Recovery: Thin skin overall: 5 days
[13]; listed as Hibitane gel
  Recovery: Complete recovery (coat grown back): 40 days and 38 days
  Recovery: Skin with roughly original thickness: 12 days

## OO [3% aqueous hydrogen peroxide, hydrogen peroxide]
[1]; [21]
  viable cell number: 2 × 10^3 cells/g of sample
[1]; [22]
  viable cell number: 3 × 10^4 cells/g of sample
[1]; [14]
  viable cell number: 6 × 10^6 cells/g of sample
[1]; [15]
  viable cell number: 5 × 10^4 cells/g of sample
[1]; [16]
  viable cell number: 3 × 10^4 cells/g of sample
[1]; [17]
  viable cell number: 5 × 10^4 cells/g of sample
[1]; [18]
  viable cell number: 1 × 10^8 cells/g of sample
[1]; [19]
  viable cell number: 7 × 10^5 cells/g of sample
[2]; [21]
  viable cell number: 1 × 10^2 cells/g of sample
[2]; [22]
  viable cell number: 1.8 × 10^2 cells/g of sample
[2]; [14]
  viable cell number: 5 × 10^4 cells/g of sample
[2]; [15]
  viable cell number: 2 × 10^2 cells/g of sample
[2]; [16]
  viable cell number: 9 × 10^3 cells/g of sample
[2]; [17]
  viable cell number: 2 × 10^4 cells/g of sample
[2]; [18]
  viable cell number: 8 × 10^5 cells/g of sample
[2]; [19]
  viable cell number: 4 × 10^4 cells/g of sample
[3]; [21]
  viable cell number: 2 × 10^2 cells/g of sample
[3]; [22]
  viable cell number: 4 × 10^2 cells/g of sample
[3]; [14]
  viable cell number: 5 × 10^6 cells/g of sample
[3]; [15]
  viable cell number: 5 × 10^2 cells/g of sample
[3]; [16]
  viable cell number: 5 × 10^4 cells/g of sample
[3]; [17]
  viable cell number: 1 × 10^5 cells/g of sample
[3]; [18]
  viable cell number: 4 × 10^8 cells/g of sample
[3]; [19]
  viable cell number: 6 × 10^6 cells/g of sample
[4]; [21]
  viable cell number: 4 × 10^2 cells/g of sample
[4]; [22]
  viable cell number: 5 × 10^2 cells/g of sample
[4]; [14]
  viable cell number: 1 × 10^5 cells/g of sample
[4]; [15]
  viable cell number: 1 × 10^3 cells/g of sample
[4]; [16]
  viable cell number: 5 × 10^3 cells/g of sample
[4]; [17]
  viable cell number: 5 × 10^3 cells/g of sample
[4]; [18]
  viable cell number: 7 × 10^6 cells/g of sample
[4]; [19]
  viable cell number: 4 × 10^4 cells/g of sample
[5]; 10 days
  Elongation of nails: 0.9 mm
[5]; 20 days
  Elongation of nails: 1.8 mm
[5]; 30 days
  Elongation of nails: 2.7 mm
[5]; 40 days
  Elongation of nails: 3.6 mm
[5]; 50 days
  Elongation of nails: 4.5 mm
[5]; 60 days
  Elongation of nails: 5.4 mm
[5]; applied for 2 months
  difference in elongation between right and left hands: No significant differences in elongation
[6]
  effect against spores: ineffective
[7]
  survival of bacteria living inside plaque: half survived
[8]
  bactericidal effect in presence of organic substance: A similar tendency was seen
[9]
  time required to kill acid-fast bacteria: a minute or more
[10]; [20]
  length of severed red worms: 21 mm
[10]; 10 days after severing
  length of severed red worms: 22 mm
[10]; 15 days after severing
  length of severed red worms: 23 mm
[10]; 20 days after severing
  length of severed red worms: 24 mm
[10]; 30 days after severing
  length of severed red worms: 25 mm
[10]; 40 days after severing
  length of severed red worms: 27 mm
[10]; 50 days after severing
  length of severed red worms: 28 mm
[10]; groups of 10 red worms
  Deaths: 7
[11]
  bactericidal effect on putrefying bacteria in food: most of the bacteria survived immediately after spraying
[13]
  Recovery: Complete recovery (coat grown back): 40 days
  Recovery: Skin with roughly original thickness: 15 days
  Recovery: Thin skin overall: 5 days

## CC(O)C(=O)O.CCOc1ccc2nc3cc(N)ccc3c(N)c2c1 [Acrinol, acrinol]
[5]; 10 days
  Elongation of nails: 0.8 mm
[5]; 20 days
  Elongation of nails: 1.6 mm
[5]; 30 days
  Elongation of nails: 2.4 mm
[5]; 40 days
  Elongation of nails: 3.3 mm
[5]; 50 days
  Elongation of nails: 4.0 mm
[5]; 60 days
  Elongation of nails: 4.8 mm
[7]
  survival of bacteria living inside plaque: half survived
[8]
  bactericidal effect in presence of organic substance: A similar tendency was seen
[10]; [20]
  length of severed red worms: 21 mm
[10]; 10 days after severing
  length of severed red worms: 22 mm
[10]; 15 days after severing
  length of severed red worms: 23 mm
[10]; 20 days after severing
  length of severed red worms: 24 mm
[10]; 30 days after severing
  length of severed red worms: 27 mm
[10]; 40 days after severing
  length of severed red worms: 29 mm
[10]; 50 days after severing
  length of severed red worms: 30 mm
[10]; groups of 10 red worms
  Deaths: 8
[13]
  Recovery: Complete recovery (coat grown back): 40 days
  Recovery: Skin with roughly original thickness: 15 days
  Recovery: Thin skin overall: 5 days
